The values that follow come from patent US20050014765A1, “Aryl-heteroaromatic products, compositions comprising them and use” (Aventis Pharma S.A., priority 2003, published 2005).

In general, melting point refers to the temperature of the solid-liquid transition.

One data set has as its system HCT116 cells. The data set can be described thus: Inhibition of proliferation of the HCT116 human colon tumor line ([14C]-thymidine incorporation). The note with it: HCT-116, 48 hours incubation at 37° C., read-out: Inhibition of HCT116 proliferation IC 50. Format: cell-based. How it is done: Test for Determining the Inhibition of Proliferation of the HCT116 Human Colon Tumor Line
The proliferation of HCT116 cells is evaluated by mesuring the incorporation of [^14C]-thymidine in the following way. The HCT166 cells (from the ATCC) are cultured in a DMEM medium (Gibco) which contains 10% of fetal calf serum and antibiotics (1% penicillin, 1% streptomycin). To perform the proliferation test, the cells are seeded into 96-well cytostar microplates (Amersham) at the rate of 5000 cells per well. The [^14C]-thymidine (0.1 μCi/well) and the products to be evaluated are subsequently added. Variable concentrations of products up to 10 μM are used; the DMSO (solvent used to dissolve the products) should not exceed 0.5% in the medium. 48 hours after incubation at 37° C., the radioactivity incorporated into the cells is measured by counting the plate in a Tri-Lux counter (Wallac). The IC50 is defined as the concentration of product which reduces the radioactivity by 50% compared with an untreated control. A product with an IC50 of less than 10 μm is regarded as cytotoxic.
A general note: Uptake of a labelled nucleoside into DNA is a usual measure of proliferation.

The target in data set [1] is T1, Tubulin purified from pig brains (Sus scrofa, UniProt P02550+P02554).
T1 construct: Tubulin is purified from pig brains according to published methods; from tissue; host or cells: pig brain
The data set can be described thus: Assessment of the inhibition of tubulin polymerization (turbidimetry at 350 nm). The note with it: concentration which inhibits the rate of polymerization by 50%; tubulin 1 mg/ml, 37° C.; read-out: Inhibition of tubulin polymerization IC 50. The data set is classed as biochemical. Here is the method: Assessment of the Inhibition of Tubulin Polymerization
Tubulin is purified from pig brains according to published methods (Shelanski et al., 1973, Proc. Natl. Acad. Sci. USA, 70, 765-768. Weingarten et al., 1975, Proc. Natl. Acad. Sci. USA, 72, 1858-1862). Briefly, the brains are ground and centrifuged in an extraction buffer. The tubulin, present in the extract supernatant is subjected to two successive cycles of polymerization at 37° C. and depolymerization at 4° C., before being separated from the MAPs (Microtubule Associated Proteins) by chromatography on a phosphocellulose P11 column (Whatman). The tubulin thus isolated is more than 95% pure. It is stored in a buffer known as RB/2 30% glycerol, the composition of which is 50 mM MES-NaOH [2-(N-morpholino)ethanesulfonic acid], pH 6.8; 0.25 mM MgCl2; 0.5 mM EGTA; 30% (v/v) glycerol, 0.2 mM GTP (guanosine 5′-triphosphate).
The polymerization of the tubulin into microtubules is monitored by turbidimetry as follows: the tubulin is adjusted to a concentration of 10 μm (1 mg/ml) in the RB/2 30% glycerol buffer, to which are added 1 mM GTP and 6 mM MgCl2. The polymerization is initiated by increasing the temperature from 6° C. to 37° C. in a cuvette with a 1 cm optical pathlength, placed in a UVIKON 931 spectrophotometer (Kontron) equipped with a thermostatically-regulated cuvette holder. The increase in turbidity of the solution is monitored at 350 nm.
The products are dissolved at 10 mM in DMSO and added at variable concentrations (0.5 to 10 μm) to the tubulin solution before polymerization. The IC50 is defined as the concentration of the product which inhibits the rate of polymerization by 50%.

T1 sequence (P02550 whole entry): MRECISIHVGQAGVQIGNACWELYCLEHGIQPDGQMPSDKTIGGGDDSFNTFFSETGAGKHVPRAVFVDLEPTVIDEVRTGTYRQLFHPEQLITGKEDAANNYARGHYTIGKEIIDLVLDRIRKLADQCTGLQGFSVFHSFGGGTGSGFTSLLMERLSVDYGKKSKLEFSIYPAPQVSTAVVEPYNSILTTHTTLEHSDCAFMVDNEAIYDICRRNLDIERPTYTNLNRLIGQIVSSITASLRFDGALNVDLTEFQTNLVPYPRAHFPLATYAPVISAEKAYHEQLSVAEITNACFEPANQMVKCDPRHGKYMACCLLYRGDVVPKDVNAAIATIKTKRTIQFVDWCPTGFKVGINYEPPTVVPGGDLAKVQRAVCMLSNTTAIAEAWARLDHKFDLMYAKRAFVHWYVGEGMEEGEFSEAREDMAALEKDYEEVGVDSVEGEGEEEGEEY
T1 sequence (P02554 whole entry): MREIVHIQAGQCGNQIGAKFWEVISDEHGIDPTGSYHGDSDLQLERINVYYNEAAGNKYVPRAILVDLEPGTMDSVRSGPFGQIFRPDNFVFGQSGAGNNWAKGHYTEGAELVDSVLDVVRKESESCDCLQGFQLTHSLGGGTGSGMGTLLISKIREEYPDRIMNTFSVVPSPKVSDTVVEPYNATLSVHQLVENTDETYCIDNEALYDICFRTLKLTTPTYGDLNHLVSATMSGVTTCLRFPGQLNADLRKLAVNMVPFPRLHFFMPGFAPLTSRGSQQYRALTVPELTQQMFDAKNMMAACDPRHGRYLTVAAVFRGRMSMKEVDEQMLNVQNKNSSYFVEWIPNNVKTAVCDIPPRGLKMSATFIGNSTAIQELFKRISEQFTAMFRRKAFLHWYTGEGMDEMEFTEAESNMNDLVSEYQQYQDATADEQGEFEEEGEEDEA

`COc1cc(OC)cc(N2CCN(C(=O)c3[nH]cnc3-c3ccccc3)CC2)c1` [Example 9, [4-(3,5-Dimethoxyphenyl)piperazin-1-yl](4-phenyl-1H-imidazol-5-yl)-methanone] displayed a melting point of 196 °C. In addition, in the data set with HCT116 cells, the IC50 turned out to be 1.3 nM. In data set [1], the IC50 turned out to be 600 nM.

For the compound `O=C(c1nc(S)[nH]c1-c1ccccc1)N1CCN(c2cccc(Cl)c2)CC1` [Example 19, [4-(3-Chlorophenyl)piperazin-1-yl](2-mercapto-5-phenyl-1H-imidazol-4-yl)-methanone], the melting point is > 260 °C. The IC50 in the data set with HCT116 cells was found to be 28.7 nM. In addition, the IC50 in data set [1] was found to be 750 nM.

The compound `COc1cc(OC)cc(N2CCN(C(=O)c3ccn(C)c3-c3ccccc3)CC2)c1` [Example 27, [4-(3,5-Dimethoxyphenyl)piperazin-1-yl](1-methyl-2-phenyl-1H-pyrrol-3-yl)-methanone] yielded a melting point of 130 °C. Moreover, the IC50 in the data set with HCT116 cells was determined as 15.1 nM. Also, the IC50 in data set [1] turned out to be 1900 nM.

Regarding `COc1cc(OC)cc(N2CCN(C(=O)c3[nH]c(O)nc3-c3ccccc3)CC2)c1` [Example 28, [4-(3,5-Dimethoxyphenyl)piperazin-1-yl](2-hydroxy-5-phenyl-1H-imidazol-4-yl)methanone], the melting point was 130 °C. In the data set with HCT116 cells, the IC50 came out at 1.5 nM. Besides, the IC50 in data set [1] amounted to 1100 nM.

In the case of `NC(=O)c1cccc(N2CCN(C(=O)c3[nH]c(C(F)(F)F)nc3-c3ccccc3)CC2)c1` [Example 54, 3-[4-(2-Trifluoromethyl-4-phenyl-1H-imidazol-5-ylcarbonyl)piperazin-1-yl]-benzamide], the figures for the IC50 (with HCT116 cells; in data set [1]) were 1890 nM and 1080 nM, respectively.

Regarding `CSc1nc(-c2ccccc2)c(C(=O)N2CCN(c3cccc(C(N)=O)c3)CC2)[nH]1` [Example 55, 3-[4-(2-Methylsulfanyl-4-phenyl-1H-imidazol-5-ylcarbonyl)piperazin-1-yl]-benzamide], the IC50 in the data set on HCT116 cells turned out to be 64 nM; in data set [1], 1380 nM.

As to `CSc1nc(-c2ccccc2)c(C(=O)N2CCN(c3cccc(C#N)c3)CC2)[nH]1` [Example 56, 3-[4-(2-Methylsulfanyl-4-phenyl-1H-imidazol-5-ylcarbonyl)piperazin-1-yl]-benzonitrile], the values for the IC50 (in the data set with HCT116 cells; in data set [1]) were 1.7 nM and 415 nM, respectively.

As for `NC(=O)c1cccc(N2CCN(C(=O)c3c[nH]cc3-c3ccccc3)CC2)c1` [Example 58, 3-[4-(4-Phenyl-1H-pyrrol-3-ylcarbonyl)piperazin-1-yl]benzamide], the IC50 worked out at 334 nM with HCT116 cells and 4450 nM in data set [1].

With `Cc1nc(-c2ccccc2)c(C(=O)N2CCN(c3cccc(C(N)=O)c3)CC2)[nH]1` [Example 59, 3-[4-(2-Methyl-5-phenyl-1H-imidazol-4-ylcarbonyl)piperazin-1-yl]benzamide], the figures for the IC50 (in the data set with HCT116 cells; in data set [1]) were 364 nM and 4660 nM, respectively.

As to `Cc1nc(-c2ccccc2)c(C(=O)N2CCN(c3cccc(C#N)c3)CC2)[nH]1` [Example 60, 3-[4-(2-Methyl-5-phenyl-1H-imidazol-4-ylcarbonyl)piperazin-1-yl]benzonitrile], the IC50 with HCT116 cells came out at 11 nM; in data set [1] it was 990 nM.

With `N#Cc1cccc(N2CCN(C(=O)c3c[nH]cc3-c3ccccc3)CC2)c1` [Example 61, 3-[4-(4-Phenyl-1H-pyrrol-3-ylcarbonyl)piperazin-1-yl]benzonitrile], the results for the IC50 (in the data set on HCT116 cells; in data set [1]) were 40 nM and 2320 nM, respectively.

Consider `COc1cc(OC)cc(N2CCN(C(=O)c3[nH]c(C(F)(F)F)nc3-c3ccccc3)CC2)c1` [Example 62, [4-(3,5-Dimethoxyphenyl)piperazin-1-yl](2-trifluoromethyl-4-phenyl-1H-imidazol-5-yl)methanone], for which the IC50 was found to be 8 nM in the data set on HCT116 cells and 570 nM in data set [1].

In the case of `COc1cc(OC)cc(N2CCN(C(=O)c3ccn(C(C)=O)c3-c3ccccc3)CC2)c1` [Example 63, [4-(3,5-Dimethoxyphenyl)piperazin-1-yl](1-acetyl-2-phenyl-1H-pyrrol-3-yl)methanone], the melting point is 150 °C. For the same compound, in data set [1], the IC50 is 4000 nM.

Regarding `NC(=O)c1cccc(N2CCN(C(=O)c3cn(CCO)cc3-c3ccccc3)CC2)c1` [Example 66, 3-[4-(1-Hydroxyethyl-4-phenyl-1H-pyrrol-3-ylcarbonyl)piperazin-1-yl]benzamide], the figures for the IC50 (in the data set on HCT116 cells; in data set [1]) were 2030 nM and 2430 nM, respectively.

`COc1cc(OC)cc(N2CCN(C(=O)c3[nH]c(S(C)(=O)=O)nc3-c3ccccc3)CC2)c1` [Example 67, [4-(3,5-Dimethoxyphenyl)piperazin-1-yl](2-methylsulfonyl-4-phenyl-1H-imidazol-5-yl)methanone]: the IC50 in the data set with HCT116 cells was found to be 2700 nM; in data set [1], 1650 nM.

With `O=C(c1[nH]cnc1-c1ccccc1)N1CCN(c2cccc(CO)c2)CC1` [Example 68, [4-(3-Hydroxymethylphenyl)piperazin-1-yl](4-phenyl-1H-imidazol-5-yl)methanone], the IC50 in the data set with HCT116 cells was 13 nM; in data set [1] it was 480 nM.

Consider `Cn1cc(C(=O)N2CCN(c3cccc(CO)c3)CC2)c(-c2ccccc2)c1` [Example 69], for which the IC50 with HCT116 cells was 45 nM; in data set [1], 710 nM.

For `CS(=O)(=O)c1nc(-c2ccccc2)c(C(=O)N2CCN(c3cccc(C#N)c3)CC2)[nH]1` [Example 70, 3-[4-(2-Methylsulfonyl-4-phenyl-1H-imidazol-4-ylcarbonyl)piperazin-1-yl]benzonitrile], the melting point stood at 198 °C. Further, the IC50 in data set [1] was found to be 3750 nM.

For `N#Cc1cccc(N2CCN(C(=O)c3cn(CO)cc3-c3ccccc3)CC2)c1` [Example 72, 3-[4-(1-Hydroxymethyl-4-phenyl-1H-pyrrol-3-ylcarbonyl)piperazin-1-yl]benzonitrile], the IC50 in the data set on HCT116 cells turned out to be 29.5 nM; in data set [1] it was 580 nM.

For the compound `NC(=O)c1cccc(N2CCN(C(=O)c3c(-c4ccccc4)ccn3CC(=O)O)CC2)c1` [Example 73, {2-[4-(3-Carbamoylphenyl)piperazin-1-ylcarbonyl]-3-phenylpyrrol-1-yl}acetic acid], the IC50 was 2700 nM with HCT116 cells and 18400 nM in data set [1].

Turning to `Cc1nc(-c2ccccc2)c(C(=O)N2CCN(c3cccc(CO)c3)CC2)[nH]1` [Example 76, [4-(3-Hydroxymethylphenyl)piperazin-1-yl](2-methyl-4-phenyl-1H-imidazol-5-yl)methanone], the IC50 in the data set on HCT116 cells was 101 nM; in data set [1], 970 nM.

With `O=C(c1[nH]c(S)nc1-c1ccccc1)N1CCN(c2cccc(CO)c2)CC1` [Example 78, [4-(3-Hydroxymethylphenyl)piperazin-1-yl](2-mercapto-4-phenyl-1H-imidazol-5-yl)methanone], the IC50 with HCT116 cells is 244 nM; in data set [1] it was 725 nM.

Consider `CSc1nc(-c2ccccc2)c(C(=O)N2CCN(c3cccc(CO)c3)CC2)[nH]1` [Example 79, [4-(3-Hydroxymethylphenyl)piperazin-1-yl](2-methylsulfanyl-4-phenyl-1H-imidazol-5-yl)methanone], for which the values for the IC50 (with HCT116 cells; in data set [1]) were 11.7 nM and 493 nM, respectively.

Consider `N#Cc1cccc(N2CCN(C(=O)c3sc(N)nc3-c3ccccc3)CC2)c1` [Example 82, 3-[4-(2-Amino-4-phenylthiazol-5-ylcarbonyl)piperazin-1-yl]benzonitrile], for which the melting point was 246 °C. Besides, the IC50 in data set [1] is 294 nM.

On to `NC(=O)c1cccc(N2CCN(C(=O)c3sc(N)nc3-c3ccccc3)CC2)c1` [Example 85, 3-[4-(2-Amino-4-phenyl-thiazol-5-ylcarbonyl)piperazin-1-yl]benzamide], for which the melting point amounted to 236 °C. Further, in data set [1], the IC50 was determined as 685 nM.

`Nc1nc(-c2ccccc2)c(C(=O)N2CCN(c3cccc(CO)c3)CC2)s1` [Example 88, [4-(3-Hydroxymethylphenyl)piperazin-1-yl](2-amino-4-phenylthiazol-5-yl)-methanone]: the melting point was found to be 176 °C. In addition, the IC50 in data set [1] worked out at 715 nM.
